Results published in patent US20250059174A1, “Pharmaceutical Compounds and Compositions as C-Kit Kinase Inhibitors” (Enanta Pharmaceuticals, Inc., priority 2023, published 2025).

Tests used:
[1] = biological target: Recombinant human c-KIT kinase (Homo sapiens (Human), UniProt P10721); test: c-KIT kinase chemiluminescence assay (ADP-Glo); assay type: biochemical; settings: ATP 50 μM
How it was run: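 ADP formed by c-KIT on polyEY over 2 h at RT (after 30 min enzyme preincubation; Tris pH 7.5, MgCl2, BSA, DTT buffer) was detected by ADP-Glo luminescence. IC50 and Hill slope were fitted to control-normalized activity across compound concentrations.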

M-07e cells = test: M-07e cellular assay (SCF-mediated cell proliferation); assay type: cell-based; settings: Homo sapiens, 72 hours, CellTiter Glo
How it was run: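 EC50 values reflect inhibition of SCF-driven proliferation, with SCF at EC90 and a 72 h compound exposure, measured as CellTiter Glo luminescence. Growth is scaled between no-SCF (0%) and untreated (100%) wells.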

Sequence of Recombinant human c-KIT kinase (P10721 26-976): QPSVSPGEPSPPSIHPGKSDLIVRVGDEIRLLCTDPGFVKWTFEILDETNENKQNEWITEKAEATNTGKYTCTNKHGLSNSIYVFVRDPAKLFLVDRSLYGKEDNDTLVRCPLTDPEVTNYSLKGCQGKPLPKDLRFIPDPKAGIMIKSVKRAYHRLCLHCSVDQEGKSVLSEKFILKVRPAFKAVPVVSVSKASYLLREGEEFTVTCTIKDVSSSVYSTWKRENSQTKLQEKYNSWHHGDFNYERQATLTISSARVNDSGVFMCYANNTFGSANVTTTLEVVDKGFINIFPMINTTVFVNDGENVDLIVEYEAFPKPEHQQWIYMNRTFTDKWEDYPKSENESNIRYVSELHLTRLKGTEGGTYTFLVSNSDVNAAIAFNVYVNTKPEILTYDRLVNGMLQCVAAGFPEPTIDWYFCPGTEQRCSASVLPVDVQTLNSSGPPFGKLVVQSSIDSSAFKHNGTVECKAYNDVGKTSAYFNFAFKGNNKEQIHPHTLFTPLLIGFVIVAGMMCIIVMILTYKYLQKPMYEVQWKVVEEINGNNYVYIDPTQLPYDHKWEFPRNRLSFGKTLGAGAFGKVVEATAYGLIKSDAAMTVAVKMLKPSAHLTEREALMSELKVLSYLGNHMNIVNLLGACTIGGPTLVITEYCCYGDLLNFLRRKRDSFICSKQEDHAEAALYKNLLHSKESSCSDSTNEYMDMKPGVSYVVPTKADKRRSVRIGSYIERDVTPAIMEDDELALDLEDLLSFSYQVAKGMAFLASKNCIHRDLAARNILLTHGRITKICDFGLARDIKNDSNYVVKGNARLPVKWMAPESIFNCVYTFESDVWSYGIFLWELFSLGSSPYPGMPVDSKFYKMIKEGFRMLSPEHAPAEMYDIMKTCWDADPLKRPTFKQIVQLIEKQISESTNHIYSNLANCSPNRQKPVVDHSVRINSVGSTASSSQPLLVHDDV

SMILES	IC50 [1]	EC50 (M-07e cells)
Cc1ccc(-c2noc([C@H]3C[C@@H]3F)n2)cc1NC(=O)c1cnc(-c2ccc3oc(=O)[nH]c3c2)o1 [Example 307]	> 1 µM	0.1 to 1 µM
Cc1ccc(-c2noc([C@H]3C[C@@H]3F)n2)cc1NC(=O)c1cnc(-c2ccc3[nH]c(C#N)cc3c2)o1 [Example 308-1]	0.1 to 1 µM	0.1 to 1 µM
Cc1ccc(-c2noc([C@H]3C[C@@H](C(F)(F)F)C3)n2)cc1NC(=O)c1cnc(-c2ccc3c(c2)CC(=O)N3)o1 [Example 308-2]	< 0.1 µM	< 0.1 µM
Cc1ccc(-c2noc([C@H]3C[C@@H](OC(F)(F)F)C3)n2)cc1NC(=O)c1cnc(-c2ccc3c(c2)CC(=O)N3)o1 [Example 308-3]	< 0.1 µM	< 0.1 µM
Cc1ccc(-c2noc([C@H]3C[C@@H]3F)n2)cc1NC(=O)c1cnc(-c2ccc3c(c2)C2(CC2)C(=O)N3)o1 [Example 308-4]	0.1 to 1 µM	0.1 to 1 µM
Cc1ccc(-c2noc([C@H]3C[C@@H]3F)n2)cc1NC(=O)c1cnc(-n2cccn2)o1 [Example 308-5]	> 1 µM	> 1 µM
Cc1cc(C)n(-c2ncc(C(=O)Nc3cc(-c4noc([C@H]5C[C@@H]5F)n4)ccc3C)o2)n1 [Example 308-6]	> 1 µM	> 1 µM
Cc1ccc(-c2noc([C@H]3C[C@@H]3F)n2)cc1NC(=O)c1cnc(-c2c(C)nn(CC(C)(C)O)c2C)o1 [Example 308-7]	> 1 µM	> 1 µM
Cc1ccc(-c2noc([C@H]3C[C@@H]3F)n2)cc1NC(=O)c1cnc(-c2ccc3c(c2)C2(CCN(C(=O)OC(C)(C)C)CC2)C(=O)N3)o1 [Example 308-8]	> 1 µM	0.1 to 1 µM
Cc1ccc(-c2noc([C@H]3C[C@@H]3F)n2)cc1NC(=O)c1cnc(-c2ccc3c(c2)C2(CCNCC2)C(=O)N3)o1 [Example 308-9]	0.1 to 1 µM	> 1 µM
Cc1cc(F)c(-c2noc([C@H]3C[C@@H]3F)n2)cc1NC(=O)c1cnc(-c2ccc3c(cnn3C(=O)OC(C)(C)C)c2)o1 [Example 308-10]	> 1 µM	0.1 to 1 µM
Cc1cc(F)c(-c2noc([C@H]3C[C@@H]3F)n2)cc1NC(=O)c1cnc(-c2ccc3[nH]ncc3c2)o1 [Example 308-11]	0.1 to 1 µM	0.1 to 1 µM
Cc1ncc(-c2noc([C@H]3C[C@@H]3F)n2)cc1NC(=O)c1cnc(-c2ccc3c(c2)CC(=O)N3)o1 [Example 308-12]	> 1 µM	0.1 to 1 µM
Cc1ccc(-c2noc([C@H]3C[C@@H]3F)n2)cc1NC(=O)c1cnc(-c2ccc(-n3cccn3)cc2)o1 [Example 308-13]	> 1 µM	> 1 µM
Cc1ccc(-c2noc([C@H]3C[C@@H]3F)n2)cc1NC(=O)c1cnc(-c2ccc3[nH]c(=O)ccc3c2)o1 [Example 308-14]	< 0.1 µM	< 0.1 µM
Cc1ccc(-c2noc([C@H]3C[C@@H]3F)n2)cc1NC(=O)c1cnc(-c2ccc3c(c2)CCC(=O)N3)o1 [Example 308-15]	0.1 to 1 µM	0.1 to 1 µM
Cc1ccc(-c2noc([C@H]3C[C@@H]3F)n2)cc1NC(=O)c1cnc(-c2ccc(-c3cnn(C)c3)cc2)o1 [Example 308-16]	0.1 to 1 µM	0.1 to 1 µM
Cc1ccc(-c2noc([C@H]3C[C@@H]3F)n2)cc1NC(=O)c1cnc(-c2cnc3[nH]ccc3c2)o1 [Example 308-17]	< 0.1 µM	< 0.1 µM
Cc1ccc(-c2noc([C@H]3C[C@@H]3F)n2)cc1NC(=O)c1cnc(-c2ccc3nccn3c2)o1 [Example 308-18]	0.1 to 1 µM	0.1 to 1 µM
CC(=O)Nc1ccc(-c2ncc(C(=O)Nc3cc(-c4noc([C@H]5C[C@@H]5F)n4)ccc3C)o2)cc1 [Example 308-19]	0.1 to 1 µM	0.1 to 1 µM
CC(=O)Nc1ccc(-c2ncc(C(=O)Nc3cc(-c4noc([C@H]5C[C@@H]5F)n4)ccc3C)o2)cn1 [Example 308-20]	> 1 µM	0.1 to 1 µM
Cc1ccc(-c2noc([C@H]3C[C@@H]3F)n2)cc1NC(=O)c1cnc(-c2ccc3[nH]nc(C)c3c2)o1 [Example 308-21]	< 0.1 µM	< 0.1 µM
Cc1ccc(-c2noc([C@H]3C[C@@H]3F)n2)cc1NC(=O)c1cnc(-c2ccc(NS(C)(=O)=O)cc2)o1 [Example 308-22]	0.1 to 1 µM	0.1 to 1 µM
Cc1ccc(-c2noc([C@H]3C[C@@H]3F)n2)cc1NC(=O)c1cnc(-c2cccc3cn[nH]c23)o1 [Example 308-23]	< 0.1 µM	> 1 µM
Cc1ccc(-c2noc([C@H]3C[C@@H]3F)n2)cc1NC(=O)c1cnc(-c2ccc3c(c2)OCCN3)o1 [Example 308-24]	< 0.1 µM	< 0.1 µM
Cc1ccc(-c2noc([C@H]3C[C@@H]3F)n2)cc1NC(=O)c1cnc(-c2ccc3c(c2)OC(C)(C)C(=O)N3)o1 [Example 308-25]	0.1 to 1 µM	0.1 to 1 µM
CCOC(=O)c1cc2cc(-c3ncc(C(=O)Nc4cc(-c5noc([C@H]6C[C@@H]6F)n5)ccc4C)o3)ccc2[nH]1 [Example 308-26]	< 0.1 µM	0.1 to 1 µM

SMILES	IC50 [1]	EC50 (M-07e cells)
Cc1cc2cc(-c3ncc(C(=O)Nc4cc(-c5noc([C@H]6C[C@@H]6F)n5)ccc4C)o3)ccc2[nH]1 [Example 308-27]	< 0.1 µM	< 0.1 µM
Cc1ccc(-c2noc([C@H]3C[C@@H]3F)n2)cc1NC(=O)c1cnc(-c2cccc(NS(C)(=O)=O)c2)o1 [Example 308-28]	0.1 to 1 µM	0.1 to 1 µM
Cc1ccc(-c2noc([C@H]3C[C@@H]3F)n2)cc1NC(=O)c1cnc(-c2cccc3[nH]ccc23)o1 [Example 308-29]	< 0.1 µM	0.1 to 1 µM
CNS(=O)(=O)c1cccc(-c2ncc(C(=O)Nc3cc(-c4noc([C@H]5C[C@@H]5F)n4)ccc3C)o2)c1 [Example 308-30]	0.1 to 1 µM	0.1 to 1 µM
Cc1ccc(-c2noc([C@H]3C[C@@H]3F)n2)cc1NC(=O)c1cnc(-c2ccc3cn(C)nc3c2)o1 [Example 308-31]	0.1 to 1 µM	0.1 to 1 µM
Cc1ccc(-c2noc([C@H]3C[C@@H]3F)n2)cc1NC(=O)c1cnc(-c2ccc3cnn(C)c3c2)o1 [Example 308-32]	< 0.1 µM	0.1 to 1 µM
Cc1ccc(-c2noc([C@H]3C[C@@H]3F)n2)cc1NC(=O)c1cnc(-c2cccc3c2NC(=O)C3)o1 [Example 308-33]	> 1 µM	> 1 µM
Cc1ccc(-c2noc([C@H]3C[C@@H]3F)n2)cc1NC(=O)c1cnc(-c2cccc3[nH]c(=O)[nH]c23)o1 [Example 308-34]	0.1 to 1 µM	> 1 µM
Cc1ccc(-c2noc([C@H]3C[C@@H]3F)n2)cc1NC(=O)c1cnc(-c2ccc3c(c2)oc(=O)n3C)o1 [Example 308-35]	0.1 to 1 µM	0.1 to 1 µM
Cc1ccc(-c2noc([C@H]3C[C@@H]3F)n2)cc1NC(=O)c1cnc(-c2ccc3c(c2)NCCO3)o1 [Example 308-36]	< 0.1 µM	< 0.1 µM
Cc1ccc(-c2noc([C@H]3C[C@@H]3F)n2)cc1NC(=O)c1cnc(-c2ccc3c(c2)C(C)(C)C(=O)N3)o1 [Example 308-37]	0.1 to 1 µM	0.1 to 1 µM
Cc1ccc(-c2noc([C@H]3C[C@@H]3F)n2)cc1NC(=O)c1cnc(-c2cccc3nc[nH]c23)o1 [Example 308-38]	0.1 to 1 µM	0.1 to 1 µM
Cc1ccc(-c2noc([C@H]3C[C@@H]3F)n2)cc1NC(=O)c1cnc(-c2ccc3nc[nH]c3c2)o1 [Example 308-39]	0.1 to 1 µM	0.1 to 1 µM
Cc1nc2cc(-c3ncc(C(=O)Nc4cc(-c5noc([C@H]6C[C@@H]6F)n5)ccc4C)o3)ccc2[nH]1 [Example 308-40]	< 0.1 µM	< 0.1 µM
Cc1ccc(-c2noc([C@H]3C[C@@H]3F)n2)cc1NC(=O)c1cnc(-c2cccc3cc[nH]c23)o1 [Example 308-41]	0.1 to 1 µM	> 1 µM
Cc1ccc(-c2noc([C@H]3C[C@@H]3F)n2)cc1NC(=O)c1cnc(-c2ccc(F)c3[nH]ccc23)o1 [Example 308-42]	0.1 to 1 µM	0.1 to 1 µM
Cc1ccc(-c2noc([C@H]3C[C@@H]3F)n2)cc1NC(=O)c1cnc(-c2cccc3[nH]ncc23)o1 [Example 308-43]	< 0.1 µM	0.1 to 1 µM
Cc1ccc(-c2noc([C@H]3C[C@@H]3F)n2)cc1NC(=O)c1cnc(-c2ccc(F)c3[nH]ncc23)o1 [Example 308-44]	0.1 to 1 µM	0.1 to 1 µM
Cc1ccc(-c2noc([C@H]3C[C@@H]3F)n2)cc1NC(=O)c1cnc(-c2ccc3nnn(C)c3c2)o1 [Example 308-46]	0.1 to 1 µM	0.1 to 1 µM
Cc1ccc(-c2noc([C@H]3C[C@@H]3F)n2)cc1NC(=O)c1cnc(-c2ccc(NC(N)=O)cc2)o1 [Example 308-47]	0.1 to 1 µM	0.1 to 1 µM
COC(=O)Nc1ccc(-c2ncc(C(=O)Nc3cc(-c4noc([C@H]5C[C@@H]5F)n4)ccc3C)o2)cc1 [Example 308-48]	0.1 to 1 µM	0.1 to 1 µM
Cc1ccc(-c2noc([C@H]3C[C@@H]3F)n2)cc1NC(=O)c1cnc(-c2ccc3c(c2)NC(=O)CO3)o1 [Example 308-52]	0.1 to 1 µM	0.1 to 1 µM
Cc1ccc(-c2noc([C@H]3C[C@@H]3F)n2)cc1NC(=O)c1cnc(-c2ccc3c(c2)O[C@@H](C)CN3)o1 [Example 308-53]	0.1 to 1 µM	0.1 to 1 µM
Cc1ccc(-c2noc([C@H]3C[C@@H]3F)n2)cc1NC(=O)c1cnc(-c2ccc3c(c2)O[C@H](C)CN3)o1 [Example 308-54]	0.1 to 1 µM	0.1 to 1 µM
Cc1ccc(-c2noc([C@H]3C[C@@H]3F)n2)cc1NC(=O)c1cnc(-c2ccc3c(c2)CC(=O)N3C)o1 [Example 308-55]	0.1 to 1 µM	0.1 to 1 µM
Cc1ccc(-c2noc([C@H]3C[C@@H]3F)n2)cc1NC(=O)c1cnc(-c2ccc3[nH]c4c(c3c2)CCN(C(=O)OC(C)(C)C)C4)o1 [Example 308-56]	0.1 to 1 µM	0.1 to 1 µM
